This note sets out measurements from patent US12138277B2, “Oligosaccharides for use in the treatment of Parkinson's disease” (UNIVERSITA' DEGLI STUDI DI MILANO, priority 2018, dated 2024).

For data set [1], the system named is Neuroblastoma cells of murine origin. Briefly: Proteomic analysis by mass spectroscopy of treated neuroblastoma cells. It counts as cell-based. Conditions: after 24 h of treatment. As for the experimental part: Neuroblastoma cells of murine origin were treated with β-Gal-(1-3)-β-GalNAc-(1-4)-[α-Neu5Ac-(2-3)]-β-Gal-(1-4)-Glc to induce neuronal differentiation (Chiricozzi et al. 2017 Journal of Neurochemistry 143:645-659). After 24 h of treatment, the cells were collected for protein analysis. […] These proteins are involved in cellular signaling of i) excitotoxicity neuroprotection; ii) inhibition of oxidative stress; iii) inhibition of microglia hyperactivation and downregulation of proinflammatory molecules.

Data set [2] deals with Neuroblastoma cells. The data set is described as follows: Excitotoxicity protection: DCB-induced death of neuroblastoma cells. It counts as cell-based. As to the method: In Parkinson's disease, and more generally in the degenerative diseases of the central nervous system, there is a strong activation of the immune system, oxidative stress and excitotoxicity. Neuroblastoma cells were then treated with DCB (3′,4′-Dichlorobenzamyl hydrochloride) to induce an accumulation of intracellular calcium, an experimental strategy which mimics glutamate-induced excitotoxicity.

Data set [3] in a line: Crossing of the blood-brain barrier: radioactivity in brain areas after administration of tritiated oligosaccharide. It counts as in vivo, Wild-type mice (C57BL/6). Conditions: intraperitoneal, subcutaneous or intravenous administration; 10 μg tritiated oligosaccharide; 1 hour and 22 hours after administration. As for the experimental part: Wild-type mice (C57BL/6) of about 3 months were treated with β-[6-^3H]Gal-(1-3)-β-GalNAc-(1-4)-[α-Neu5Ac-(2-3)]-β-Gal-(1-4)-Glc.
Administration was performed intraperitoneally, subcutaneously or intravenously (Orlando P. et al 1979, Pharmacological Research Communications 11:759-773). For the intravenous route, the injection was performed in the central vein of the tail. The treatment was carried out with 10 μg of tritiated oligosaccharide (10 μCi) dissolved in 0.1 ml of saline. For each experimental group 5 animals were used. 1 hour and 22 hours after administration, the animals were sacrificed by cardiac perfusion (10 min), in order to remove the blood, especially in the central nervous system. The brain was removed and the different areas (cortex, hippocampus, substantia nigra, cerebellum, trunk) were identified and separated. Tissue samples were lyophilized, homogenized and the relative associated radioactivity was detected at the β-counter (Orlando et al 1979, Pharmacological Research Communication 11:759-773).

Regarding `CC(=O)N[C@H]1[C@H](O[C@@H]2[C@H](O[C@]3(C(=O)O)C[C@H](O)[C@@H](NC(C)=O)[C@H]([C@H](O)[C@H](O)CO)O3)[C@@H](O)[C@H](O[C@H]3[C@H](O)[C@@H](O)C(O)O[C@@H]3CO)O[C@@H]2CO)O[C@H](CO)[C@H](O)[C@@H]1O[C@@H]1O[C@H](CO)[C@H](O)[C@H](O)[C@H]1O` (stereo partly drawn) [β-Gal-(1-3)-β-GalNAc-(1-4)-[α-Neu5Ac-(2-3)]-β-Gal-(1-4)-Glc], in data set [1], the “number of proteins whose expression is induced” value was determined as 320. Also, the “toxicity of the oligosaccharide to cells” value in data set [2] (neuroblastoma cells) was “without being toxic to cells”. Also, in data set [2] (neuroblastoma cells treated with DCB (3′,4′-Dichlorobenzamyl hydrochloride)), the “protection of cells from DCB-induced death” value was “able to protect cells from DCB-induced death”.
As to “β-[6-^3H]Gal-(1-3)-β-GalNAc-(1-4)-[α-Neu5Ac-(2-3)]-β-Gal-(1-4)-Glc”, in data set [3], the “oligosaccharide reaching the central nervous system / crossing the blood-brain barrier (associated radioactivity in brain areas)” value is “a fair amount of the oligosaccharide is able to reach the central nervous system, including the substantia nigra, within a few hours”.
